The values below come from patent publication US20210220331A1, “INHIBITORS OF IRES-MEDIATED PROTEIN SYNTHESIS” (The Regents of the University of California, priority 2016, published 2021).

Type in all cases: cell-based
Experiment [1] relates to LN229 cells. The experiment can be described thus: Combination analysis with PP242 (XTT, combination index) in LN229. As to conditions: combination of PP242 and analog, CI=1.0 dose additive, CI<0.5 synergy, CI<0.3 strong synergy. The text has this: Fold decrease in either PP242-induced cyclin D1 or c-MYC IRES activity in LN229 relative to values obtained with the parent compound C11 are shown for each analog. […] CI=1.0 (dose additive), CI<0.5 (synergy), CI<0.3 (strong synergy).
The structure-activity relationships (SAR) for C11 and related compounds were investigated by synthesizing and testing the analogs listed in Table 1. […] The degree of apoptotic cell death following co-treatment with analog and PP242 was also monitored.
(Tetrazolium dyes change colour on reduction, which living cells bring about.)

Experiment [2] has as its target T1, hnRNP A1 binding to cyclin D1 or c-MYC IRES RNAs (Homo sapiens, UniProt P09651).
T1 construct: endogenous in cells; host or cells: LN229 glioblastoma cells; 293T cells
The experiment can be described thus: RNA-pull down assay with biotinylated cyclin D1 or c-MYC IRES RNAs. On the procedure:
For immunopurification of eIF4E and bound RNA (21), cells were lysed in buffer containing 50 mM Tris-HCl (pH 7.4), 300 mM NaCl, 0.5% NP-40, 10 mM NaF, 1 mM sodium orthovanidate, 1 mM PMSF, 1.5% aprotinin and SUPERase-IN (ThermoFisher Scientific), 0.025 units/ml, using a Dounce homogenizer at 4° C. Extracts were cleared by centrifugation and immunoprecipitated with eIF4E or control IgG. Beads were washed and obtained RNA was subjected to quantitative RTPCR. For quantitative RT-PCR, extraction of RNA was performed using Trizol (ThermoFisher). Total RNA was then quantified and integrity assessed using an Agilent 2100 Bioanalyzer (Agilent Technology). Total RNA was reverse transcribed with random primers using the RETROscript Kit from ThermoFisher. SYBR Green quantitative PCR was performed in triplicate in 96-well optical plates on an ABI Prism 7000 Sequence Detection System (Life Technologies) according to the manufacturer's instructions. Primer sequences for CCND1, c-MYC and actin are available upon request. […]
(B) Schematic diagrams of the dicistronic constructs used in this study. […] Input and bound fractions were analyzed by immunoblotting using hnRNP A1 antibodies. […] Bound CCND1 or c-MYC RNAs were detected via RT-PCR. […]

Experiment [3] deals with LN229 cells. The experiment can be described thus: Apoptosis via Annexin V staining in LN229. The note with it: LN229 cotreated with PP242 (50 nM) and analog (100 nM), 24 h.

T1 sequence (P09651 whole entry): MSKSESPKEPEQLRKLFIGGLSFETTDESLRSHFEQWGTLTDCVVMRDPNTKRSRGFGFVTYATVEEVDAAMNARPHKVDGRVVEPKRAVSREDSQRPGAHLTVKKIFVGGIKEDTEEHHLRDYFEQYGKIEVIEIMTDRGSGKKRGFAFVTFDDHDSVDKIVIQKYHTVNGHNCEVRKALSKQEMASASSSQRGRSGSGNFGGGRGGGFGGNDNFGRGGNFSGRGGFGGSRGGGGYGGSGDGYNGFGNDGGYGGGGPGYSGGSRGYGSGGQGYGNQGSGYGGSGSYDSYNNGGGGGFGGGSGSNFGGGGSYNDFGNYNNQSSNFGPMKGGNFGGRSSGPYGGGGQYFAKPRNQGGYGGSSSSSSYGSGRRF

On to `COc1ccc(CN2C(=O)C(Cl)=C(Cl)C2=O)c(OC)c1` [Compound C11, reference compound], for which, in experiment [1], the “CI ED50, 1:100 (combination index)” value stood at 0.50. Besides, in experiment [2] (extracts of LN229 cells treated with 50 nM), the “hnRNP A1 binding to cyclin D1 or c-MYC IRES RNAs” value is “markedly reduced hnRNP A1 binding”. Besides, the “% Apoptosis (100 nM)” value in experiment [3] turned out to be 25.9%.

For the molecule `COc1ccc(CN2C(=O)c3ccccc3C2=O)c(OC)c1` [IRES-J007, 2-((2,4-Dimethoxyphenyl)methyl)isoindoline-1,3-dione], in experiment [1], the “CI ED50, 1:100 (combination index)” value is 0.42. The “ability to block cyclin D1 or c-MYC IRES-hnRNP A1 interactions relative to C11” value in experiment [2] (293T cell extracts) was “improved ability”. The “% Apoptosis (100 nM)” value in experiment [3] came to 62.4%.
